Results taken from ChEMBL document CHEMBL3792312, “Synthesis and docking studies of pyrazine-thiazolidinone hybrid scaffold targeting dormant tuberculosis” (Bioorg Med Chem Lett, 2016).
In brackets after ≈: the same amount, converted by molar mass.

Experiments:
Staphylococcus aureus [1] = experiment: Antibacterial activity against Staphylococcus aureus at 3 ug after 12 hrs; format: functional
A549 = experiment: (§1) Cytotoxicity against human A549 cells after 3 days by MTT assay; format: cell-based; conditions: Homo sapiens, A549, 72 h
[2] = as §1; format: cell-based; conditions: human, A549 cells; read-out: MIC
[3] = Cytotoxicity against human THP1 cells after 5 days by MTT assay; format: cell-based, THP-1; conditions: for IC50: Homo sapiens, THP-1, 120 h; for MCC at 120 h: human, THP1 cells, read-out: MIC
Pseudomonas fluorescens [4] = experiment: Antibacterial activity against Pseudomonas fluorescens at 10 ug after 8 hrs; format: functional
[5] = test system: Mycolicibacterium smegmatis; experiment: Antitubercular activity against dormant Mycobacterium smegmatis MC2 155 at 30 ug after 12 days by XTT-Menadione assay; format: functional, str. MC2 155
[6] = test system: Mycobacterium tuberculosis; experiment: Antitubercular activity against dormant Mycobacterium tuberculosis H37Ra at 3 ug after 12 days by XTT-Menadione assay; format: functional
Bacillus subtilis [7] = experiment: Antibacterial activity against Bacillus subtilis at 3 ug after 12 hrs; format: functional
Escherichia coli [8] = experiment: Antibacterial activity against Escherichia coli at 30 ug after 8 hrs; format: functional
Escherichia coli [9] = experiment: Antibacterial activity against Escherichia coli at 3 ug after 8 hrs; format: functional
Staphylococcus aureus [10] = experiment: Antibacterial activity against Staphylococcus aureus at 30 ug after 12 hrs; format: functional
Pseudomonas fluorescens [11] = experiment: Antibacterial activity against Pseudomonas fluorescens at 30 ug after 8 hrs; format: functional
Bacillus subtilis [12] = experiment: Antibacterial activity against Bacillus subtilis at 30 ug after 12 hrs; format: functional
[13] = Cytotoxicity against human PANC1 cells after 5 days by MTT assay; format: cell-based, PANC-1; conditions: for IC50: Homo sapiens, PANC-1, 120 h; for MCC at 120 h: human, PANC1 cells, read-out: MIC
[14] = test system: Mycobacterium tuberculosis; experiment: Antitubercular activity against dormant Mycobacterium tuberculosis H37Ra at 30 ug after 12 days by XTT-Menadione assay; format: functional
[15] = test system: Mycobacterium tuberculosis; experiment: Antitubercular activity against dormant Mycobacterium tuberculosis H37Ra after 12 days by XTT-Menadione assay; format: functional, organism-based; conditions: 288 h
[16] = test system: Mycobacterium tuberculosis; experiment: Antitubercular activity against dormant Mycobacterium tuberculosis H37Ra at 10 ug after 12 days by XTT-Menadione assay; format: functional
[17] = test system: Mycolicibacterium smegmatis; experiment: Antitubercular activity against dormant Mycobacterium smegmatis MC2 155 at 10 ug after 12 days by XTT-Menadione assay; format: functional, str. MC2 155
[18] = (§2) Cytotoxicity against human MCF7 cells after 4 days by MTT assay; format: cell-based; conditions: human, MCF7 cells; read-out: MIC
MCF7 = experiment: as §2; format: cell-based; conditions: Homo sapiens, MCF7, 96 h
Staphylococcus aureus [19] = experiment: Antibacterial activity against Staphylococcus aureus at 10 ug after 12 hrs; format: functional
Pseudomonas fluorescens [20] = experiment: Antibacterial activity against Pseudomonas fluorescens at 3 ug after 8 hrs; format: functional
Bacillus subtilis [21] = experiment: Antibacterial activity against Bacillus subtilis at 10 ug after 12 hrs; format: functional
Escherichia coli [22] = experiment: Antibacterial activity against Escherichia coli at 10 ug after 8 hrs; format: functional
[23] = test system: Mycolicibacterium smegmatis; experiment: Antitubercular activity against dormant Mycobacterium smegmatis MC2 155 at 3 ug after 12 days by XTT-Menadione assay; format: functional, str. MC2 155

| Structure (SMILES) | inhibition (INH) (Staphylococcus aureus [1]) [%] | IC50 (A549) [µg/mL] | MCC at 72 h [2] [µg/mL] | IC50 [3] [µg/mL] | MCC at 120 h [3] [µg/mL] | inhibition (INH) (Pseudomonas fluorescens [4]) [%] | inhibition (INH) [5] [%] | inhibition (INH) [6] [%] | inhibition (INH) (Bacillus subtilis [7]) [%] | inhibition (INH) (Escherichia coli [8]) [%] | inhibition (INH) (Escherichia coli [9]) [%] | inhibition (INH) (Staphylococcus aureus [10]) [%] | inhibition (INH) (Pseudomonas fluorescens [11]) [%] | inhibition (INH) (Bacillus subtilis [12]) [%] | IC50 [13] [µg/mL] | MCC at 120 h [13] [µg/mL] | inhibition (INH) [14] [%] | IC50 [15] [µg/mL] | MIC [15] [µg/mL] | inhibition (INH) [16] [%] | also measured |
| --- | --- | --- | --- | --- | --- | --- | --- | --- | --- | --- | --- | --- | --- | --- | --- | --- | --- | --- | --- | --- | --- |
| COc1cc([C@@H]2SCC(=O)N2NC(=O)c2cnc(C)cn2)ccc1O | 42.47 | 62.3 (≈ 173 µM) | > 100 | 86.9 (≈ 241 µM) | > 100 | 33.16 | -19.0256 | 66.03 | 14.34 | -53.27 | 33.04 | -0.17 | 47.41 | 19.67 | > 100 | > 100 | 91.2 | 0.997 (≈ 2.77 µM) | 27.9 (≈ 77.3 µM) | 70.7 | inhibition (INH) [17]: 33.4%; MCC at 96 h [18]: > 100 µg/mL; IC50 (MCF7): 70.2 µg/mL (≈ 195 µM); inhibition (INH) (Staphylococcus aureus [19]): 23.58%; inhibition (INH) (Pseudomonas fluorescens [20]): -2.64%; inhibition (INH) (Bacillus subtilis [21]): 8.59%; inhibition (INH) (Escherichia coli [22]): -54.14%; inhibition (INH) [23]: -19.102% |
| COc1ccc([C@H]2SCC(=O)N2NC(=O)c2nccnc2N)cc1OC | 26.84 | 80 (≈ 213 µM) | > 100 | 85.4 (≈ 228 µM) | > 100 | 22.77 | 31.62 | 50.37 | 8.28 | 4.659 | 70.93 | 34.19 | 41.19 | 9.92 | > 100 | > 100 | 90.99 | 0.718 (≈ 1.91 µM) | 25.8 (≈ 68.8 µM) | 70.88 | inhibition (INH) [17]: 35.96%; MCC at 96 h [18]: > 100 µg/mL; IC50 (MCF7): 86.2 µg/mL (≈ 230 µM); inhibition (INH) (Staphylococcus aureus [19]): 6.63%; inhibition (INH) (Pseudomonas fluorescens [20]): 30.31%; inhibition (INH) (Bacillus subtilis [21]): 22.5%; inhibition (INH) (Escherichia coli [22]): 50.22%; inhibition (INH) [23]: 50.59% |
| Cc1cnc(C(=O)NN2C(=O)CS[C@@H]2c2cccc([N+](=O)[O-])c2)cn1 | -1.03 | > 100 | > 100 | > 100 | > 100 | 33.6 | 19.6 | 48.93 | 3.26 | 70.21 | 47.15 | 17.56 | 42.75 | 4.11 | > 100 | > 100 | 91.39 | 4.29 (≈ 11.9 µM) | 29 (≈ 80.7 µM) | 56.26 | inhibition (INH) [17]: 20.19%; MCC at 96 h [18]: > 100 µg/mL; IC50 (MCF7): > 100 µg/mL; inhibition (INH) (Staphylococcus aureus [19]): 33.4%; inhibition (INH) (Pseudomonas fluorescens [20]): 20.43%; inhibition (INH) (Bacillus subtilis [21]): 0.21%; inhibition (INH) (Escherichia coli [22]): 53.08%; inhibition (INH) [23]: 57.26% |
| Cc1cnc(C(=O)NN2C(=O)CS[C@@H]2c2ccc([N+](=O)[O-])cc2)cn1 | 9.39 | > 100 | > 100 | > 100 | > 100 | 7.48 | 10.44 | 72.31 | 21.45 | 62.08 | 56.92 | 13.12 | 22.82 | 13.11 | > 100 | > 100 | 91.72 | 0.528 (≈ 1.47 µM) | 27.5 (≈ 76.6 µM) | 73.66 | inhibition (INH) [17]: 42.01%; MCC at 96 h [18]: > 100 µg/mL; IC50 (MCF7): > 100 µg/mL; inhibition (INH) (Staphylococcus aureus [19]): -8.13%; inhibition (INH) (Pseudomonas fluorescens [20]): 26.73%; inhibition (INH) (Bacillus subtilis [21]): 22.68%; inhibition (INH) (Escherichia coli [22]): 37.74%; inhibition (INH) [23]: 57.99% |
| CCOc1cc([C@H]2SCC(=O)N2NC(=O)c2nccnc2N)ccc1O | 4.98 | 84.2 (≈ 224 µM) | > 100 | 68.9 (≈ 183 µM) | > 100 | 20.37 | -15.9058 | 48.5 | 22.27 | -33.02 | -48.72 | 24.55 | 40.87 | 9.32 | > 100 | > 100 | 91.26 | 3.46 (≈ 9.22 µM) | 28.6 (≈ 76.3 µM) | 65 | inhibition (INH) [17]: 38.28%; MCC at 96 h [18]: > 100 µg/mL; IC50 (MCF7): 80.8 µg/mL (≈ 215 µM); inhibition (INH) (Staphylococcus aureus [19]): -5.22%; inhibition (INH) (Pseudomonas fluorescens [20]): -6.51%; inhibition (INH) (Bacillus subtilis [21]): -16.24%; inhibition (INH) (Escherichia coli [22]): -9.65%; inhibition (INH) [23]: 12.74% |
